Laboratory results: paper PMC10600239, “Selective MCL-1 inhibitor ABBV-467 is efficacious in tumor models but is associated with cardiac troponin increases in patients” (Communications Medicine, 2023)
Values joined by “and” are separate entries in the source; they are usually repeats but may differ in a detail not shown here. Equal values may be shown once. Read-outs that look alike come from different tables or passages of the source.

Legend:
MV4-11 cells = test: In vitro cell viability assay (CellTiter-Glo); format: cell-based, human
Experimental: (§1) All cell lines were grown and treated in RPMI 1640 or Dulbecco’s modified Eagle medium (Sigma, St. Louis, MO) supplemented with 10% fetal bovine serum (Gibco) or 10% human serum (Sigma) and maintained in a humidified incubator at 5% CO2 and 37 °C. DLD-1, MV4-11, NCI-H929 (all ATCC, Manassas, VA, USA) and AMO-1 (DSMZ, Braunschweig, Germany) cells were plated 4000 cells per well in 384-well tissue culture plates and treated with compounds of interest for 24 h at 37 °C, 5% CO2 humidified incubator. Each concentration was tested in duplicate at least 3 separate times. Adherent cells were allowed to adhere overnight prior to treatment. Alternatively, AMO-1 or NCI-H929 cells were treated with ABBV-467 for the indicated contact times (1–24 h) at 37 °C in a 5% CO2 humidified incubator and washed 3 times with compound-free media prior to incubation for the remainder of a 24-h treatment period. Cell viability was subsequently determined using CellTiter-Glo (Promega, Madison, WI, USA) according to the manufacturer’s instructions.
(§2) For in vitro viability assays, mean EC50 and EC90 values were determined from the resulting dose-response curves from at least 3 independent experiments, and depict the mean ± standard error of the mean.

DLD-1 cells = test: In vitro cell viability assay (CellTiter-Glo); format: cell-based, human; conditions: for EC50: Homo sapiens
Experimental: as §1, §2

OPM-2 xenografts = test: OPM-2 xenograft efficacy (tumor volume, body weight); format: in vivo, mouse; conditions: 6.25 mg/kg IV once weekly for 3 weeks
Experimental: All animal studies were conducted in accordance with the guidelines approved by the Institutional Animal Care and Use Committees of AbbVie. The research protocol was approved by In Vivo Pharmacology at AbbVie prior to study initiation but was not publicly registered or disclosed. Female C.B-17 SCID-beige mice (AMO-1, OPM-2, NCI-H929, and OCI-AML2 xenografts) and female NSG mice (MV4-11-Red.Fluc systemic) were purchased from Charles River Laboratories (Wilmington, MA). Animals were housed in a light cycle-controlled room with HEPA filtration at 22 °C. Animals had nesting and climbing cage topper as the primary environmental enrichment. Animals were inoculated subcutaneously in the right flank with 5 × 10^6 (AMO-1, OPM-2, NCI-H929, and OCI-AML2) or intravenous (IV) with 5 × 10^6 (MV4-11-Red.Fluc). The inoculation volume (0.2 mL) comprised a 50:50 mixture of cells in growth media and Matrigel (BD Biosciences) for subcutaneous injections and 100% phosphate-buffered saline for IV administration. All cell lines used in this publication were authenticated using IDEXX for STR profiling as well as their IMPACT and human IMPACT panels for pathogen screening. Electronic calipers were used to measure the length and width of each tumor 2 to 3 times per week. Tumor volume was estimated by applying the following equation: volume = length × width^2/2. All groups remained blinded during measurements and dosing; only veterinary staff were aware of group identity. When tumors reached approximately 200 mm^3, mice were randomized by match and distributed into treatment and control groups. All xenograft trials were conducted using 5 to 10 mice per group, and all mice were ear tagged and monitored individually throughout the studies. Any animal with a tumor above 2000 mm^3 or 15% loss in body weight was euthanized and removed from the study. Tumor burden in the systemic MV4-11-Red.Fluc experiment was measured using an IVIS® spectrum from PerkinElmer by taking the total photon flux of the entire dorsal side of an individual mouse. Ten minutes prior to imaging, animals received intraperitoneally 0.2 mL of a 15-mg/mL solution of D-Luciferin (PerkinElmer, Catalog #122799) formulated in 100% phosphate-buffered saline. Animals were anesthetized using 3.5% isoflurane and maintained using 2%. Six days after inoculation, animals were imaged and randomized into vehicle and treatment groups at a total flux of ~1 × 10^8. A background control mouse that was tumor naive but received D-Luciferin was placed in the upper left corner of each image. The total flux from this animal was subtracted from the total flux of each animal present in the image.
For in vivo studies, maximal tumor growth inhibition (TGI) was calculated as the greatest treatment response using the following equation: Maximal TGI = (1 − mean tumor volume of the treated group/mean tumor volume of the vehicle control group) × 100. The tumor growth delay (TGD) percentage was determined as the percentage increase of the median time period for the treatment group to reach an arbitrary tumor volume of 1000 mm^3 relative to the vehicle control group. […] A power analysis was conducted using historical data to determine the number of animals required to yield significance of 0.05 at a 30% difference. There were no animals excluded. Data from experiments in vivo were analyzed using the student’s t-test for TGI values and the Mann–Whitney U test for TGD using Excel and GraphPad Prism. Fisher’s exact test was used to probe significance of differences in response frequency.

SMILES: Cc1c(Cl)c2c(Cl)c(C)c1-c1c(-c3ccc(F)cc3)sc3ncnc(c13)O[C@@H](C(=O)O)Cc1cc(ccc1OCc1ccnc(-c3ccc(OC[C@H]4COCCO4)cc3)n1)OC[C@@H](CN1CCN(C)CC1)O2 [ABBV-467]
- EC50 (MV4-11 cells; Homo sapiens, MV4-11, MV4-11, arithmetic mean, read-out: Arithmetic Mean EC50 µM): 0.00391 µM
- EC50 (MV4-11 cells; Homo sapiens, MV4-11, MV4-11, individual determinations, read-out: Individual EC50): 0.00403 µM
- EC50 (MV4-11 cells; MV4-11, individual determinations, read-out: Individual EC50): 0.00422 µM and 0.00347 µM
- activity in DLD-1 (DLD-1 cells): inactive
- EC50 (DLD-1 cells; DLD-1, read-out: DLD-1 EC50 (nM), 10% FBS, 24 h continuous treatment): > 10000 nM
- EC50 (DLD-1 cells; DLD-1, arithmetic mean, read-out: Arithmetic Mean EC50): > 10000 nM
- EC50 (DLD-1 cells; DLD-1, individual determinations, read-out: Individual EC50): > 10000 nM
- maximal TGD (OPM-2 xenografts): 82%
